In test [1] the test system is Rattus norvegicus. Kind of test: Neuroleptic activity in Wistar HLA rat assessed as inhibition of methamphetamine-induced stereotyped behavior at 5 mg/kg, ip administered 20 mins before methamphetamine challenge measured every 30 mins for 3 hrs followed by every 1 hr for further 3 hrs. It counts as functional. The arrangement: Activity: scale not given: the % may be the effect or the level left. The conditions noted are these: route intraperitoneal; for inhibition in vivo at 5 mg/kg: Rattus norvegicus, Wistar HLA, ip.

The subject of test [2] is Rattus norvegicus. Put plainly: Neuroleptic activity in Wistar HLA rat assessed as inhibition of methamphetamine-induced stereotyped behavior at 1 mg/kg, ip administered 20 mins before methamphetamine challenge measured every 30 mins for 3 hrs followed by every 1 hr for further 3 hrs. The following applies: route intraperitoneal. In kind it is functional. More on the design: Activity: scale not given: the % may be the effect or the level left.

The subject of test [3] is Mus musculus. Kind of test: Neuroleptic activity in STD-ddy mouse assessed as inhibition of locomotion at 100 mg/kg, po measured for 3 mins. In kind it is functional. The conditions noted are these: 0.05 h.
Test [4] concerns Mus musculus. Kind of test: Neuroleptic activity in STD-ddy mouse assessed as muscle relaxation at 100 mg/kg, po after 20 mins. It counts as functional, organism-based. More on the design: dose 100 mg/kg.
The test system of test [5] is Rattus norvegicus. Put plainly: Neuroleptic activity in Wistar HLA rat assessed as inhibition of methamphetamine-induced stereotyped behavior at 10 mg/kg, ip administered 20 mins before methamphetamine challenge measured every 30 mins for 3 hrs followed by every 1 hr for further 3 hrs. The following applies: route intraperitoneal; for inhibition in vivo at 10 mg/kg: Rattus norvegicus, Wistar HLA, ip. In kind it is functional. More on the design: Activity: scale not given: the % may be the effect or the level left.

For test [6], the system named is Rattus norvegicus. Put plainly: Neuroleptic activity in Wistar HLA rat assessed as inhibition of methamphetamine-induced stereotyped behavior at 2 mg/kg, ip administered 20 mins before methamphetamine challenge measured every 30 mins for 3 hrs followed by every 1 hr for further 3 hrs. In kind it is functional. The arrangement: Activity: scale not given: the % may be the effect or the level left. The conditions noted are these: route intraperitoneal.

For test [7], the system named is Mus musculus. Kind of test: Neuroleptic activity in STD-ddy mouse assessed as inhibition of locomotion at 10 mg/kg, po measured for 3 mins. In kind it is functional. The conditions noted are these: 0.05 h.
The subject of test [8] is Mus musculus. Put plainly: Neuroleptic activity in STD-ddy mouse assessed as catalepsy at 100 mg/kg, po measured up to 30 secs. It counts as functional, organism-based. The arrangement: dose 100 mg/kg.
In test [9] the test system is Rattus norvegicus. Put plainly: Neuroleptic activity in po dosed Wistar HLA rat assessed as inhibition of intracranial self-stimulation measured for 1 to 24 hrs. It counts as functional.
In test [10] the test system is Mus musculus. Kind of test: Neuroleptic activity in po dosed STD-ddy mouse assessed as inhibition of active avoidance. It counts as functional.
Test [11] deals with Mus musculus. Kind of test: Neuroleptic activity in po dosed STD-ddy mouse assessed as inhibition of locomotion measured for 3 mins. It counts as functional. The conditions noted are these: 0.05 h.
Test [12] relates to Mus musculus. Put plainly: Neuroleptic activity in po dosed STD-ddy mouse assessed as catalepsy measured up to 30 secs. It counts as functional.
For test [13], the system named is Rattus norvegicus. Kind of test: Neuroleptic activity in Wistar HLA rat assessed as stimulation of methamphetamine-induced stereotyped behavior at 5 mg/kg, ip administered 20 mins before methamphetamine challenge measured every 30 mins for 3 hrs followed by every 1 hr for further 3 hrs. The conditions noted are these: route intraperitoneal. It counts as functional.

For test [14], the system named is Rattus norvegicus. Put plainly: Neuroleptic activity in Wistar HLA rat assessed as stimulation of methamphetamine-induced stereotyped behavior at 10 mg/kg, ip administered 20 mins before methamphetamine challenge measured every 30 mins for 3 hrs followed by every 1 hr for further 3 hrs. The conditions noted are these: route intraperitoneal. It counts as functional.

Structures are written as SMILES. Calls of active or inactive are those of the source. The calls are words filed in the database; no cut-off is given here.

`Cc1ccc2c(c1)[C@H]1CN(CCCN3c4ccccc4Sc4cc(Cl)ccc43)CC[C@H]1N2.Cl` (relative stereo): the Activity in the test with Rattus norvegicus [1], in the test with Rattus norvegicus [2], in the test with Rattus norvegicus [5] and in the test on Rattus norvegicus [6] was 0% each time. In addition, the inhibition in vivo at 100 mg/kg in the test with Mus musculus [3] was 96.9%. Besides, in the test with Mus musculus [4], the result was inactive. Moreover, in the test on Mus musculus [7], the inhibition in vivo at 10 mg/kg was 56.6%.
As to `Cc1ccc2c(c1)[C@H]1CN(Cc3ccccc3)CC[C@@H]1N2` (relative stereo), in the test with Mus musculus [3], the inhibition in vivo at 100 mg/kg came out at 17.9%. The outcome in the test with Mus musculus [4] was inactive.
Turning to `Cc1ccc2c(c1)[C@H]1CN(Cc3ccccc3)CC[C@H]1N2` (relative stereo), the inhibition in vivo at 100 mg/kg in the test with Mus musculus [3] amounted to 35.3%. For the same compound, the outcome in the test on Mus musculus [4] and with Mus musculus [8] was inactive.
As to `CCN1CC[C@H]2Nc3ccc(C)cc3[C@H]2C1` (mixture of isomers), the inhibition in vivo at 100 mg/kg in the test with Mus musculus [3] stood at 54.7%. Besides, in the test on Mus musculus [8], the outcome was inactive.
Turning to `COc1ccc2c(c1)[C@H]1CN(CCCC(=O)c3ccc(F)cc3)CC[C@H]1N2.Cl` (relative stereo), the Activity with Rattus norvegicus [1], in the test on Rattus norvegicus [2] and with Rattus norvegicus [6] was 0% in each case. Further, the inhibition in vivo at 100 mg/kg in the test on Mus musculus [3] was determined as 96.7%. Moreover, the result in the test on Mus musculus [4] was Active. Further, the inhibition in vivo at 10 mg/kg with Rattus norvegicus [5] is 25%; in the test on Mus musculus [7], 61.7%.
Consider `Cc1ccc2c(c1)[C@H]1CN(CC(=O)c3ccccc3)CC[C@H]1N2` (relative stereo), for which the inhibition in vivo at 100 mg/kg in the test with Mus musculus [3] is 29.8%. Further, the outcome in the test with Mus musculus [4] and with Mus musculus [8] was inactive.
Consider `CN1c2ccc(F)cc2[C@H]2CN(CCCC(=O)c3ccc(F)cc3)CC[C@@H]21.O=C(O)/C=C\C(=O)O` (relative stereo), for which the 50% effective dose (ED50) with Rattus norvegicus [9] was found to be 7.37 mg/kg; with Mus musculus [10], 4.58 mg/kg; with Mus musculus [11], 12.8 mg/kg; in the test with Mus musculus [12], 30.7 mg/kg. In addition, in the test on Mus musculus [3], the inhibition in vivo at 100 mg/kg stood at 92.7%.
For `CC(=O)N1c2ccc(C)cc2[C@H]2CN(CCCC(=O)c3ccc(F)cc3)CC[C@H]21` (relative stereo), the inhibition in vivo at 100 mg/kg in the test with Mus musculus [3] was 21.7%. Further, the result in the test with Mus musculus [4] and in the test with Mus musculus [8] was inactive.
In the case of `Cc1ccc2c(c1)[C@H]1CN(CCCC(=O)c3ccc(F)cc3)CC[C@@H]1N2C.O=C(O)/C=C\C(=O)O` (relative stereo), the ED50 in the test on Rattus norvegicus [9] was 8.44 mg/kg; with Mus musculus [10], 11.5 mg/kg; with Mus musculus [11], 14.5 mg/kg; with Mus musculus [12], 55.9 mg/kg. In addition, in the test on Mus musculus [3], the inhibition in vivo at 100 mg/kg was found to be 97.4%. Besides, the result with Mus musculus [8] was Active.
With `Cl.O=C(CCCN1CC[C@@H]2Nc3ccc(F)cc3[C@H]2C1)c1ccc(F)cc1` (relative stereo), the ED50 with Rattus norvegicus [9] is 4.54 mg/kg; in the test with Mus musculus [10], 5.19 mg/kg; in the test with Mus musculus [11], 7.12 mg/kg; in the test with Mus musculus [12] it was 8.08 mg/kg. The inhibition in vivo at 100 mg/kg in the test on Mus musculus [3] was determined as 92.2%.
As for `Cc1ccc2c(c1)[C@H]1CN(CCCN(C)C)CC[C@H]1N2` (relative stereo), the inhibition in vivo at 100 mg/kg in the test with Mus musculus [3] was determined as 12.3%. Also, the result with Mus musculus [4] and in the test on Mus musculus [8] was inactive.
On to `Cc1ccc2c(c1)[C@H]1CN(CCO)CC[C@@H]1N2` (relative stereo), for which, in the test with Mus musculus [3], the inhibition in vivo at 100 mg/kg is -5.6%. Further, the outcome in the test on Mus musculus [4] and in the test with Mus musculus [8] was inactive.
As for `Fc1ccc2c(c1)[C@H]1CN(Cc3ccccc3)CC[C@@H]1N2` (relative stereo), the inhibition in vivo at 100 mg/kg with Mus musculus [3] was 76.1%. Besides, the result with Mus musculus [4] and in the test on Mus musculus [8] was inactive.
For `Cc1ccc2c(c1)[C@H]1CN(CCO)CC[C@H]1N2` (relative stereo), in the test with Mus musculus [3], the inhibition in vivo at 100 mg/kg turned out to be 30.7%. Moreover, the result in the test with Mus musculus [4] and in the test on Mus musculus [8] was inactive.
On to `Cl.O=C(CCCN1CC[C@H]2Nc3ccc(F)cc3[C@H]2C1)c1ccc(F)cc1` (relative stereo), for which, in the test with Rattus norvegicus [1], the inhibition in vivo at 5 mg/kg turned out to be 25%. Further, the Activity in the test on Rattus norvegicus [2] and with Rattus norvegicus [6] was 0% throughout. For the same compound, in the test on Mus musculus [3], the inhibition in vivo at 100 mg/kg amounted to 91.2%. The inhibition in vivo at 10 mg/kg worked out at 50% in the test with Rattus norvegicus [5] and 47.2% with Mus musculus [7].
With `Cc1ccc2c(c1)[C@H]1CN(CCCC(c3ccc(F)cc3)c3ccc(F)cc3)CC[C@H]1N2` (relative stereo), the inhibition in vivo at 100 mg/kg with Mus musculus [3] is 90.7%. Moreover, the outcome with Mus musculus [4] was inactive. Moreover, in the test on Mus musculus [7], the inhibition in vivo at 10 mg/kg is -73%.
For `Cc1ccc2c(c1)[C@H]1CN(C)CC[C@@H]1N2` (relative stereo), in the test on Mus musculus [3], the inhibition in vivo at 100 mg/kg turned out to be 79.7%. For the same compound, the result in the test with Mus musculus [4] and in the test with Mus musculus [8] was inactive.
On to `Cc1ccc2[nH]c3c(c2c1)CN(CCCC(=O)c1ccc(F)cc1)CC3.Cl`, for which the Activity with Rattus norvegicus [1], with Rattus norvegicus [2], in the test on Rattus norvegicus [5] and in the test on Rattus norvegicus [6] was 0% each time.
Take `CC(=O)CCN1CC[C@H]2Nc3ccc(C)cc3[C@H]2C1` (relative stereo): the inhibition in vivo at 100 mg/kg in the test with Mus musculus [3] was 38.8%. Besides, the result in the test on Mus musculus [4] and in the test with Mus musculus [8] was inactive.
For the compound `Cl.O=C(CCCN1CC[C@H]2Nc3ccccc3[C@H]2C1)c1ccc(F)cc1` (relative stereo), the Activity in the test with Rattus norvegicus [1], in the test with Rattus norvegicus [2] and in the test with Rattus norvegicus [6] was 0% each time. For the same compound, the inhibition in vivo at 100 mg/kg in the test with Mus musculus [3] turned out to be 77.7%. Further, the inhibition in vivo at 10 mg/kg in the test on Rattus norvegicus [5] is 25%; with Mus musculus [7], -6%.
For `CCN1c2ccc(C)cc2[C@H]2CN(CCCC(=O)c3ccc(F)cc3)CC[C@H]21.Cl` (relative stereo), the Activity with Rattus norvegicus [2] is recorded as 0%; in the test with Rattus norvegicus [13] it was >75%; in the test on Rattus norvegicus [6] it was 0%; with Rattus norvegicus [14] it was >75%. Further, the inhibition in vivo at 100 mg/kg in the test on Mus musculus [3] amounted to 92.9%. The result with Mus musculus [4] and with Mus musculus [8] was Active. The inhibition in vivo at 10 mg/kg with Mus musculus [7] was 34%.
For `Cc1ccc2c(c1)[C@H]1CN(CCCC(=O)c3ccc(F)cc3)CC[C@@H]1N2.Cl` (relative stereo), the ED50 in the test on Rattus norvegicus [9] turned out to be 6.28 mg/kg; in the test on Mus musculus [10], 9.73 mg/kg; with Mus musculus [11] it was 9.73 mg/kg; with Mus musculus [12] it was 7.18 mg/kg. Besides, the inhibition in vivo at 5 mg/kg with Rattus norvegicus [1] is > 75%. The Activity with Rattus norvegicus [2] turned out to be 25%. The inhibition in vivo at 100 mg/kg with Mus musculus [3] came to 86.5%. The inhibition in vivo at 10 mg/kg in the test on Rattus norvegicus [5] is > 75%. The inhibition in vivo at 2 mg/kg in the test on Rattus norvegicus [6] (Rattus norvegicus, Wistar HLA, ip) turned out to be 50%.
As to `CC(=O)CCN1CC[C@@H]2Nc3ccc(C)cc3[C@H]2C1` (relative stereo), the inhibition in vivo at 100 mg/kg in the test on Mus musculus [3] is -15.5%. For the same compound, the result in the test on Mus musculus [4] was inactive.

The record behind these values is ChEMBL document CHEMBL3228022, “Synthesis of 2,3,4,4a,5,9b-hexahydro-1H-pyrido[4,3-b]indole derivatives and their central nervous system activities” (1979).
